Assay results from paper PMC5656594 (Scientific Reports, 2017).

Columns and labels:
IN = settings: INSTIs; cited from earlier work
[1] = target: T1, IN^PFV-viral DNA interaction (Human spumaretrovirus, UniProt P14350); assay: IN-viral DNA interaction by steady-state fluorescence anisotropy of Fl-DNA with increasing drug concentrations; format: binding, prototype foamy virus (PFV); settings: 400 nM IN^PFV, 4 nM Fl-PFV^CAAT, 10 mM Mg2+, up to 20 µM drug; means INSTI did not prevent IN-DNA interactions
T1 construct: The full-length wt IN^PFV, the three single mutants of the catalytic triad; His; made in house; host or cells: E. coli BL21-CodonPlus (DE3)-RIPL
Experimental: Their incapability to prevent or disrupt IN-viral DNA complexes was consistently observed over the whole concentration range, regardless of the INSTI tested (Supplementary Fig. S7).
IN^PFV binding to DNA was measured by fluorescence anisotropy on a Beacon Instrument (Panvera, Madison, WI, USA) as previously described[25],[51], using a double-stranded 21-mer Fl-labeled DNA mimicking the PFV U5 LTR end also referred to as DNA#1 in Table 1 (labeled at the 5′-end of the reactive strand). IN binding to Fl-PFV^CAAT (or Fl-DNA#1) was compared to the binding to other DNA sequences (Fl-DNA#8 #9 #13). DNA annealing was obtained by mixing equimolar amounts of complementary strands in buffer A, heating to 85 °C for 5 min and slow cooling to 25 °C. DNA-binding experiments were performed at 25 °C in buffer A.
Figure S7. Differential effect of INSTI and INBI compounds on the INPFV-viral DNA interaction.
The formation of IN-DNA complexes was measured by steady-state fluorescence anisotropy using 400 nM INPFV and 4 nM Fl-PFVCAAT (also named Fl-DNA#1) in the presence of 10 mM Mg2+ and […]
In each plot, the starting r value (≈ 0.20) corresponds to the typical value found at saturating concentrations of IN (see Fig. S6).
The INBI compound FZ41, a member of the styrylquinoline family of inhibitors, was used as a control […]
show mean ± SD values from two independent experiments. […]

[2] = target: T2, IN^PFV-DNA complexes (DNA#1, DNA#6, DNA#7) (Human spumaretrovirus, UniProt P14350); assay: Inhibition of ST activity by DTG using DNA#1, DNA#6 or DNA#7 substrates; format: biochemical, prototype foamy virus (PFV); settings: 100 nM DTG, 300 nM IN
T2 construct: The full-length wt IN^PFV, the three single mutants of the catalytic triad; His; made in house; host or cells: E. coli BL21-CodonPlus (DE3)-RIPL
Text: The results in Table 1 cannot discriminate between a direct sequence effect on DTG-binding from an indirect effect via a possible defect in the IN-DNA interaction. The binding of IN to various DNA sequences (DNA#1 #8 #9 and #13) was similar, as measured by fluorescence anisotropy using fluorescein-labeled DNAs (Supplementary Fig. S5A). […] The X-ray structure of the IN^PFV-DNA complex highlights specific contacts (about 9) between amino acids and the bases of the two strands (i.e. reactive and non-transferred DNA strands), up to the 10th position from the reactive strand 3′-end[26]. In particular, there is a specific contact involving a guanine of the non-transferred strand at pos. 10 and the N69 residue. […] To note, based on X-ray structures of ternary RAL/or DTG-IN-DNA complexes[26],[29] in which the INSTI has direct contacts with several bases at pos.
Figure S5. Comparison of the binary INPFV-DNA complex formation using various DNA sequences. (A) The binding of INPFV to various DNA sequences was studied by steady-state […]
concentrations of IN and DNA were mixed in the presence of 1mM Mg2+ and the r parameter was monitored. A constant concentration of Fl-DNA (0.3 µM) was maintained throughout the titration. The percentage of binary complexes as a function of (IN+DNA) was calculated using: %=(r–r0)/(rmax–r0) x100 where r0 and rmax correspond to anisotropy values of free DNA and IN-bound DNA, respectively.
(B) ST activity of IN (200 or
300 nM) after 4h incubation at 37°C using radiolabeled DNA#1, #6 or #7. Results are expressed as percentage of the activity corresponding to: DNA#1 + 300 nM IN. (C) Inhibition of the ST activity by […]
IN concentration was 300 nM. For each substrate,
The bar graphs in panels B-
(also on this page, place not known: PFV-DNA steady -state IN Strand transfer activity (% of ST with and 300 nM IN) strand transfer (% of untreated) Binary IN-DNA complexes (%) DNA#1)

D185N IN^PFV-DNA complex = target: T3, D185N IN^PFV-DNA complex (Human spumaretrovirus, UniProt P14350, D936N); assay: Fluorescence enhancement DTG-binding assay, D185N catalytic mutant; set-up: species or system prototype foamy virus (PFV); settings: 1 mM Mg2+
T3 construct: The pET-IN-PFV plasmid containing the full-length IN gene was used for mutagenesis; His; made in house; host or cells: E. coli BL21-CodonPlus (DE3)-RIPL
Experimental: The fluorescence intensity was monitored as a function of (IN + DNA) and plotted as a function of the binary IN-DNA complex concentration (measured as explained in Fig. 2E legend). […] (B) The percentage of ternary complexes was calculated using DTG fluorescence enhancement. […] The graphs in panels A-B show representative data of three independent experiments. […] "DTG" is taken from the y-axis title of the same panel.
To note, Mg^2+ is dispensable for the overall DNA-binding step of IN[32],[43]–[45] and thus, the loss of Mg^2+ chelation is not contradictory with results showing that catalytic mutants bind equally well to DNA and in a similar manner than wt IN (Supplementary Fig. S6). However, G187R cannot be considered as a catalytic mutant since it sustains a significant ST activity although weak (≈10% of the wt activity; Fig. 6).
Fluorescence excitation and emission spectra of INSTIs were recorded on a Eclipse (Varian) spectrofluorimeter equipped with two polarizers for anisotropy measurements and a thermostated cell holder, using 80 µl solutions placed in micro cells (Hellma). […] The steady-state fluorescence anisotropy was calculated using: r = (IVV–G x IVH)/(IVV + 2GxIVH) where IVV and IVH correspond to vertical and horizontal components, respectively, when the sample is excited with vertically polarized light. […]

**Q.** What does the source list for `C[C@@H]1CCO[C@H]2Cn3cc(C(=O)NCc4ccc(F)cc4F)c(=O)c(O)c3C(=O)N12` [DTG, dolutegravir]?
**A.** IC50 values (IN): low-nanomolar range; r value of Fl-DNA (IN-DNA complex) on increasing INSTI concentration [1]: remained constant; ST inhibition by DTG ([2]; IN-DNA#1 complexes): remained DTG-sensitive; ST inhibition by DTG ([2]; IN-DNA#6 complexes): remained DTG-sensitive; ST inhibition by DTG ([2]; IN-DNA#7 complexes): absence of ST inhibition; DTG binding to D185N catalytic mutant (D185N IN^PFV-DNA complex): loss of DTG-binding
